Measurements as given in publication PMC10649274 (International Journal of Molecular Sciences, 2023).
Several values for one entry are separate records, joined by “and”; a condition that tells them apart may be missing. Equal values may be shown once. Entries after “also recorded” stand apart in the source; their conditions may differ. Read-outs that look alike come from different tables or passages of the source. Values belong to the compound of their own block, whether it stands above or below them.

What was measured:
native NMDA receptors [1] = conditions: cited from earlier work
native NMDA receptors [2] = conditions: cited from earlier work; remark: listed apart in the source
[3] = test system: rat retinal excitotoxicity model; conditions: cited from earlier work
native NMDA receptors [4] = assay: Analysis of voltage dependence of NMDA receptor block (Woodhull model with voltage-independent component, Equation (2)); format: cell-based, rat
Method: NMDA receptors were activated with 100 µM NMDA plus 10 µM glycine unless otherwise stated. The percentages of blocking of the steady-state or peak currents by different drug concentrations were measured at −80, −30 or +30 mV holding voltages. Kinetics of transient processes of more than 20 ms duration were approximated with single or double exponential functions. In case of double exponential fitting, the weighted time constant was used.
The voltage dependence of compounds’ action was analyzed with the classical Woodhull model with the addition of a voltage-independent component. […] Kb is the affinity of a drug for the channel, and δ is the electrical depth of the binding site. The δ value reflects the fraction of membrane electric field that the charged blocking molecule crosses on its pathway between the external media and the binding site in the channel.
Thus, we deduced Equation (2), taking it into account and assuming that the binding to the deep and shallow site is independent:(2) B=100−100/(1+C/(Kvd∗exp〖Fzδ/RTV〗)+C/Kvi+(C∗C)/((Kvd∗exp〖Fzδ/RTV〗∗Kvi))
In this equation, Kvd is the affinity of the drug to the deep site, Kvi—the affinity of the drug to the shallow site, and other parameters are the same as in Equation (1).
All experimental data are presented as the mean ± SD estimated from at least four experiments (cells). Significance of the effects was tested with t-tests. Differences were considered significant at p < 0.05. Concentration dependencies were approximated with Hill equation. Voltage dependencies were approximated with Equation (2). […] Approximation error values were taken as the precision measures.

[5] = target: GLUN2B-containing NMDA receptor; conditions: fractionated rat brain membranes; read-out: IC50 of [3H]ifenprodil binding inhibition; cited from earlier work
[6] = test system: animal pancreatitis models; conditions: cited from earlier work
native NMDA receptors [7] = assay: Whole-cell patch clamp of NMDA plus glycine induced currents in isolated CA1 pyramidal neurons; format: cell-based, rat
Method: The rats were anesthetised with sevoflurane and then decapitated. The brains were brought out quickly and cooled to 2–4 °C. […] All experiments were performed at room temperature.
Vibrodissociation method was used to free CA1 pyramidal neurons from slices. This method allows for isolating cells without enzymatic treatment and keeping them in more native state. Pyramidal cells were isolated from the stratum pyramidale and distinguished from non-pyramidal cells on the basis of pyramidal-like somata and preserved apical dendrites.
To record membrane currents in response to applications of NMDA and glycine, the whole-cell configuration of patch clamp technique was used. Series resistance (<20 MΩ) was compensated by 70–80% and monitored during experiments. Only cells with stable holding currents were used in further analysis. The current signals were amplified using EPC-8 (HEKA Electronics, Lambrecht, Germany), filtered at 5 kHz, sampled, and stored on a personal computer. RSC-200 (BioLogic Science Instruments, Claix, France) perfusion system was used to apply the drugs under computer control. […] The pipettes with resistance of 2–5 MΩ were filled with the following solution (in mM): CsF 100, CsCl 40, NaCl 5, CaCl2 0.5, EGTA 5, HEPES 10 (pH adjusted to 7.2 with CsOH). […] Other reagents were purchased from MedChemExpress (Monmouth Junction, NJ, USA), Sigma (St. Louis, MO, USA), or Tocris Bioscience (Bristol, UK).
NMDA receptors were activated with 100 µM NMDA plus 10 µM glycine unless otherwise stated. […] Kinetics of transient processes of more than 20 ms duration were approximated with single or double exponential functions. In case of double exponential fitting, the weighted time constant was used.

[8] = −80 mV holding voltage, native NMDA receptors, earlier papers of the authors, read-out: IC50, −80 mV
[9] = Equation (2) fit, zδ free, reanalysis of the authors' earlier voltage dependence data [16],[17], read-out: Kvd
[10] = Equation (2) fit, zδ free, reanalysis of the authors' earlier voltage dependence data [16],[17], read-out: Kvi
[11] = Equation (2) with fixed zδ (0.55 mono-, 1.1 dicationic), reanalysis of earlier data [16],[17], read-out: Kvd, fixed zδ (converted)
[12] = Equation (2) with fixed zδ (0.55 mono-, 1.1 dicationic), reanalysis of earlier data [16],[17], read-out: Kvi, fixed zδ (converted)
[13] = −30 mV, 1 mM Mg2+, read-out: IC50 in the presence of magnesium

Kd (native NMDA receptors [4]; [9]): ~300 µM
Kd (native NMDA receptors [4]; [10]): 29 ± 8 µM
Kd (native NMDA receptors [4]; [11]): 800 µM
Kd (native NMDA receptors [4]; [12]): 25 µM
SMILES: CCOC(=O)c1ccc(OC(=O)CCCCCNC(=N)N)cc1 [Gabexate]
inhibition of native NMDA receptors (native NMDA receptors [1]): inhibited native NMDA receptors
nature of voltage-independent inhibition (native NMDA receptors [1]): agonist-dependent but non-competitive; also recorded: mostly voltage-independent and not competitive
type of channel block (interaction with channel gate) (native NMDA receptors [1]): did not demonstrate any signs of a “foot-in-the-door” or trapping channel block
IC50 (native NMDA receptors [1]; [8]): 16 ± 3 µM
voltage dependence of NMDA receptor inhibition (native NMDA receptors [2]): Completely voltage-independent
retinal protection [3]: did not demonstrate retinal protection activities

SMILES: CC(C(O)c1ccc(O)cc1)N1CCC(Cc2ccccc2)CC1 (stereo not shown) [Ifenprodil, ifenprodil]
share of high-affinity component in inhibition of NMDA receptor currents (native NMDA receptors [1]; CA1 pyramidal cells, biphasic concentration dependence): approximately 60%

SMILES: CC12CC3CC(C)(C1)CC(N)(C3)C2 [Memantine]
IC50 (native NMDA receptors [1]; [13]): 6.4 ± 0.5 µM

Kd (native NMDA receptors [4]; [9]): 12 ± 3 µM
Kd (native NMDA receptors [4]; [10]): 2.9 ± 0.5 µM
Kd (native NMDA receptors [4]; [11]): 10 µM and 10.5 µM
Kd (native NMDA receptors [4]; [12]): 3 µM
SMILES: N=C(N)c1ccc2cc(OC(=O)c3ccc(N=C(N)N)cc3)ccc2c1 [Nafamostat]
IC50 [5]: 4.52 µM
effect on plateau/peak ratio (native NMDA receptors [1]): did not significantly change the plateau/peak ratio
overshoots after washout (native NMDA receptors [1]): did not demonstrate overshoots
type of channel block (interaction with channel gate) (native NMDA receptors [1]): foot-in-the-door
activity in the presence of magnesium (native NMDA receptors [1]; −30 mV, 1 mM Mg2+): attenuated in the presence of magnesium
IC50 (native NMDA receptors [1]; [13]): 1.7 ± 0.2 µM
IC50 (native NMDA receptors [1]; [8]): 0.2 ± 0.04 µM
activity in animal pancreatitis models [6]: significant activity
change of inhibition with increase of NMDA concentration from 30 to 1000 µM (native NMDA receptors [7]; holding voltage not stated): not attenuated significantly
voltage dependence of NMDA receptor inhibition (native NMDA receptors [2]): strongly voltage-dependent
retinal protection [3]: retinoprotective properties

SMILES: N=C(N)c1ccc(OCCCCCOc2ccc(C(=N)N)cc2)cc1 [Pentamidine]
IC50 (NMDA receptor antagonism) (native NMDA receptors [1]): submicromolar range
type of channel block (interaction with channel gate) (native NMDA receptors [1]): partial trapping
IC50 (native NMDA receptors [1]; [8]): 0.41 ± 0.08 µM
change of inhibition with increase of NMDA concentration from 30 to 1000 µM (native NMDA receptors [7]; holding voltage not stated): not attenuated significantly
voltage dependence of NMDA receptor inhibition (native NMDA receptors [2]): strongly voltage-dependent
Kd (native NMDA receptors [4]; [9]): 60 ± 25 µM
Kd (native NMDA receptors [4]; [10]): 8 ± 1 µM
Kd (native NMDA receptors [4]; [11]): 27 µM
Kd (native NMDA receptors [4]; [12]): 10 µM

IC50 (native NMDA receptors [7]; +30 mV holding voltage, steady-state, read-out: IC50, steady-state component): 5.8 ± 1.5 µM
IC50 (native NMDA receptors [7]; −30 mV, 1 mM Mg2+, n = 7, read-out: IC50 in the presence of magnesium): 3.6 ± 1.1 µM
IC50 (native NMDA receptors [7]; −30 mV, no Mg2+, n = 5, read-out: IC50 in the absence of magnesium): 3.6 ± 1 µM
IC50 (native NMDA receptors [7]; −80 mV holding voltage, NMDA 100 µM + glycine 10 µM, steady-state (plateau) current, read-out: IC50, steady-state component): 3.5 ± 0.3 µM
IC50 (native NMDA receptors [7]; −80 mV, NMDA 100 µM + glycine 10 µM, peak current, read-out: IC50, peak component): 1.8 ± 0.4 µM
Kd (native NMDA receptors [4]; Equation (2) fit, zδ free, steady-state, read-out: Kvd, constant for voltage-dependent binding (deep site)): ~130 µM
Kd (native NMDA receptors [4]; Equation (2) fit, zδ free, steady-state, read-out: Kvi, constant for voltage-independent binding (shallow site)): 7 ± 1 µM
Kd (native NMDA receptors [4]; Equation (2) with fixed zδ 0.55 (monocation), read-out: Kvd, fixed zδ (converted)): 102 µM
Kd (native NMDA receptors [4]; Equation (2) with fixed zδ 0.55 (monocation), read-out: Kvi, fixed zδ (converted)): 7 ± 1 µM
SMILES: N=C(N)c1ccc2cc(OC(=O)c3ccc(NC4=NCCN4)cc3)ccc2c1 [Sepimostat]
IC50 [5]: 29.8 µM
activity in animal pancreatitis models [6]: significant activity
nature of voltage-independent component of inhibition (native NMDA receptors [7]): agonist-dependent but non-competitive
% block (native NMDA receptors [7]; 5 µM, 3 mM NMDA, +30 mV, n = 4): 25 ± 4%
% block (native NMDA receptors [7]; 5 µM, 3 mM NMDA, −30 mV, n = 10): 20 ± 5%
inhibition at high NMDA concentrations (native NMDA receptors [7]; 5 µM, 1000 and 3000 µM NMDA, −80 mV): about 50%
% block (native NMDA receptors [7]; 5 µM, +30 mV, representative trace, Figure 2A): 47%
% block (native NMDA receptors [7]; 5 µM, −30 mV, NMDA 30 µM, Figure 5A): 78%
% block (native NMDA receptors [7]; 5 µM, −30 mV, NMDA 1 mM, Figure 5A): 26%
% block (native NMDA receptors [7]; 5 µM, −30 mV, representative trace, Figure 2A): 49%
% block (native NMDA receptors [7]; 5 µM, −80 mV, NMDA 30 µM, Figure 5A): 78%
% block (native NMDA receptors [7]; 5 µM, −80 mV, NMDA 1 mM, Figure 5A): 44%
% block (native NMDA receptors [7]; 5 µM, −80 mV, representative trace, Figure 2A): 57%
% block (native NMDA receptors [7]; 5 µM, −120 mV, representative trace, Figure 2A): 72%
plateau/peak ratio in the presence of blocker (native NMDA receptors [7]; 10 µM, −80 mV, control 0.6 ± 0.1, n = 4): 1.1 ± 0.3
normalized plateau/peak ratio ((IBS/IB0)/(ICS/IC0)) (native NMDA receptors [7]; 10 µM, −80 mV, n = 4): 1.8 ± 0.1
trapping in double-pulse protocol (native NMDA receptors [7]; 30 µM, n = 5): no signs of trapping
τfall of overshoot (native NMDA receptors [7]; 30 µM, overshoot falling phase, n = 4): 770 ± 140 ms
τrise of overshoot (native NMDA receptors [7]; 30 µM, overshoot rising phase, n = 4): 62 ± 15 ms
amplitude of overshoot relative to steady-state control response (native NMDA receptors [7]; 30 µM, washout in the presence of agonists, n = 4): 1.8 ± 0.3
% block (native NMDA receptors [7]; 30 µM, −80 mV): > 90%
amplitude of tail currents relative to steady-state control response (native NMDA receptors [7]; 30 µM, −80 mV, washout in the absence of agonists, n = 6): 1.3 ± 0.5
change of inhibition with increase of NMDA concentration (native NMDA receptors [7]; −30 mV): attenuated
competition with Mg2+ for binding site in channel pore (native NMDA receptors [7]; −30 mV, 1 mM Mg2+): does not compete
change of inhibition with increase of NMDA concentration from 30 to 1000 µM (native NMDA receptors [7]; −80 mV): significantly decreased
type of channel block (interaction with channel gate) (native NMDA receptors [7]; −80 mV): foot-in-the-door
retinal protection [3]: retinoprotective properties
voltage dependence of NMDA receptor inhibition (native NMDA receptors [4]; 5 µM): mostly voltage-independent with a small voltage-dependent component
